Test results published in patent US20260061042A1, “POLYNUCLEOTIDE COMPOSITIONS AND USES THEREOF” (Pfizer Inc., priority 2024, published 2026).
Positions count from the first letter of the chain named. pKd: −log10 of the molar value. Read-outs that look alike come from different tables or passages of the source.

Assays:
[1] = molecular target: T1, E. coli CFT073 PapG-II lectin domain PapGLD variant N96S G147A, SEQ ID NO: 21 (Escherichia coli, UniProt A0A0H2VAQ6, G167A/N116S); assay: PapG Luminex ligand binding at equilibrium; settings: HEPES pH 7.4, 4° C. overnight
T1 sequence (A0A0H2VAQ6 with tags, fused parts or gaps N116S/G167A): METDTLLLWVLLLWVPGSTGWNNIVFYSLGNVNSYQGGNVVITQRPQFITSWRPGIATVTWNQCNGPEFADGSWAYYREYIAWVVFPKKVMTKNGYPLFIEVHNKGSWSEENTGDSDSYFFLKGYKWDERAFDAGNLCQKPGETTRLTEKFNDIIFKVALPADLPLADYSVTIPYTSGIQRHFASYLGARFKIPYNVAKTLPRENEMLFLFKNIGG
Method: (§1) To determine the ability of PapGLD mutants to bind the porcine derived globotetraosyl ceramide ligand GalNAc-Gal-Gal-Glc-ceramide (GbO4), a Luminex ligand binding assay was developed. Surfactant Protein-A (SP-A) was coupled to the surface of MagPlex beads by EDC/NHS, to capture the lipid tail of the globotetraosyl ceramide. The Globotetraosyl ceramide/SP-A beads were incubated with an eight-point threefold titration of PapG in a 96 well flat bottom white plate with final volume of 100 microliters of 50 mM HEPES PH 7.4, 10 mM NaCl, 0.0005% Tween 20 shaking at 300 rpm, 4° C. overnight. After 20-24 hours the ligand binding plates were read on a FlexMap 3D plate reader for measurement of well-bead region specific MFI. Ligand binding equilibrium dissociation constants (Kd) were calculated assuming one site specific binding and interpolated using non-linear curve fitting (GraphPad Prism) as the ligand concentration needed to achieve half-maximal binding. The Luminex derived apparent Kd values are based on approximately fifty bead counts per assay sample.
(§2) To determine Luminex ligand binding affinities of PapG mutants for the synthetic globoside ligand Gal-Glc-phenoxy-octyl-amine (GbO2Mpo), a Luminex ligand binding assay was developed based on the direct coupling of the amine reactive globoside ligand to the EDC/NHS activated carboxylic surface of MagPlex beads. Synthesis of GbO2Mpo ligand with an octyl amine linker (for coupling to beads) was performed via methods described previously. The GbO2Mpo beads were incubated with an 8-point, threefold titration of PapG in a 96-well flat bottom white plate with final volume of 100 μl of 50 mM HEPES pH 7.4, 10 mM NaCl, 0.0005% Tween 20 shaking at 300 rpm, 4° C. overnight. After 20-24 hours the ligand binding plates were read on a FlexMap 3D plate reader for measurement of well-bead region specific MFI.
(§3) Binding of PapG proteins to GbO2 or GbO4 ligands was evaluated using a Luminex platform wherein ligands were coupled to MagPlex beads via surfactant protein A (for […]) or directly using […] conjugation (for […]). This assay was used to rank order binding affinities of the mutants, reported as Kd values interpolated from protein antigen titration curves (Table 7).

[2] = molecular target: T2, E. coli CFT073 PapG-II lectin domain PapGLD variant N96S G86A, SEQ ID NO: 14 (Escherichia coli, UniProt A0A0H2VAQ6, G106A/N116S); assay: PapG Luminex ligand binding at equilibrium; settings: HEPES pH 7.4, 4° C. overnight
T2 sequence (A0A0H2VAQ6 with tags, fused parts or gaps G106A/N116S): T1 sequence (A0A0H2VAQ6 with tags, fused parts or gaps N116S/G167A) with G106A, A167G
Method: as §1, §2, §3

[3] = GbO2Mpo beads, read-out: Kd (GbO2)
[4] = GbO4 beads, read-out: Kd (GbO4)

Row | Substance | pKd [1, 3] | pKd [2, 3] | pKd [1, 4] | pKd [2, 4]
1 | Gal-Glc-phenoxy-octyl-amine [GbO2] | 8.34 | 8.89 |  | 
2 | GalNAc-Gal-Gal-Glc-ceramide [GbO4] |  |  | < 6.52 | 7.82
